The text below walks through data of ChEMBL document CHEMBL1141400, “Influence of conformation and intramolecular hydrogen bonding on the acyl glucuronidation and biliary excretion of acetylenic bis-dipyrrinones related to bilirubin” (J Med Chem, 2007).

The data set relates to Rattus norvegicus. Description: Hepatobiliary metabolism in UGT1A1-deficient Gunn rat measured as biliary excretion at 0.25 mg, iv within 240 mins. Type of data set: ADME, organism-based, Bile. The note with it: in vivo, 4 h.

Turning to `CCC1=C(C)C(=O)N/C1=C\c1[nH]c(C#Cc2[nH]c(/C=C3/NC(=O)C(C)=C3CC)c(C)c2CCC(=O)O)c(CCC(=O)O)c1C`, the Activity stood at 93%.
